Values of other authors as cited in US10568936B2, “Pharmaceutical composition for transmucosal delivery and methods for treating diabetes in a subject in need thereof” (Eastgate Pharmaceuticals Inc., priority 2014, dated 2020).

Assays:
[1] = eutectic mixture with menthol

## C[C@]12CC[C@H]3[C@@H](CCC4=CC(=O)CC[C@@]43C)[C@@H]1CC[C@@H]2O [testosterone]
[1]
  Increase in the solubility of testosterone in an aqueous ethanol vehicle: 2.8 fold
Eutectic mixture with menthol
  Increase in the flux of testosterone: 2.8 fold
High concentration of menthol
  Further increase in skin flux: eight times the base line
